Experimental data taken from ChEMBL document CHEMBL4145498, “Novel inhibitors of the rRNA ErmC' methyltransferase to block resistance to macrolides, lincosamides, streptogramine B antibiotics” (Eur J Med Chem, 2018).
pIC50: −log10 of the molar value.

Tests used:
[1] = biological target: T1, rRNA adenine N-6-methyltransferase (Staphylococcus aureus (strain N315)) (UniProt P0A0H2); assay: Inhibition of recombinant bacterial ErmC' expressed in Escherichia coli DH5alpha assessed as potentiation of erythromycin-mediated growth inhibition by measuring erythromycin MIC after 18 hrs by dilution method (reference value: > 2560 mg/L); conditions: Bacteria
T1 sequence (whole entry): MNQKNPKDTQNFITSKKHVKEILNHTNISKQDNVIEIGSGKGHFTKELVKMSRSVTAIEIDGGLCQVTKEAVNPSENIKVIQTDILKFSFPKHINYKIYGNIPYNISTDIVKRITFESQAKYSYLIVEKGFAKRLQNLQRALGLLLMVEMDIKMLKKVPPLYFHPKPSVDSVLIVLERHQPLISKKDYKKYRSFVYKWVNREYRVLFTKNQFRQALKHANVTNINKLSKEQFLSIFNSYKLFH

Escherichia coli = assay: Antibacterial activity against Escherichia coli DH5alpha expressing recombinant bacterial ErmC' after 18 hrs by dilution method; format: ADME, organism-based, DH5[alpha]
[2] = biological target: rRNA adenine N-6-methyltransferase (Staphylococcus aureus, UniProt P02979); assay: Inhibition of Staphylococcus aureus ErmC' expressed in Bacillus subtilis BD170 assessed as decrease in rRNA methylation using [methyl-3H]AdoMet measured after 120 mins by beta-plate counting method
[3] = biological target: T2, rRNA adenine N-6-methyltransferase (Staphylococcus aureus (strain N315), UniProt P0A0H2); assay: Inhibition of bacterial C-terminal His6-tagged ErmC' (unknown origin) expressed in Escherichia coli BL21(DE3) assessed as decrease in rRNA methylation using [methyl-3H]AdoMet measured after 1 hr; set-up: species or system Bacteria
T2 sequence (P0A0H2 whole entry): T1 sequence (whole entry)

[4] = biological target: T1, rRNA adenine N-6-methyltransferase (Staphylococcus aureus (strain N315)); assay: Inhibition of bacterial C-terminal His6-tagged ErmC' expressed in Escherichia coli BL21(DE3) assessed as decrease of protein binding to [gamma-33P]ATP-labeled 32-nt oligonucleotide at 5.01 mM after 30 mins by filter binding assay relative to control; conditions: Bacteria
[5] = Cytotoxicity against HEK293 cells assessed as cell viability at 125 uM after 24 hrs by MTT assay relative to control; format: cell-based; conditions: human, read-out: Activity
[6] = Cytotoxicity against HEK293 cells assessed as cell viability at 1000 uM after 24 hrs by MTT assay relative to control; format: cell-based; conditions: human, read-out: Activity
HEK293 = assay: Cytotoxicity against HEK293 cells assessed as decrease in cell viability after 24 hrs by MTT assay; format: cell-based; conditions: human, hek293, 24 h
[7] = biological target: T1, rRNA adenine N-6-methyltransferase (Staphylococcus aureus (strain N315)); assay: Uncompetitive inhibition of bacterial C-terminal His6-tagged ErmC' expressed in Escherichia coli BL21(DE3) in presence of [methyl-3H]SAM; conditions: Bacteria
[8] = Cytotoxicity against HEK293 cells assessed as cell viability at 125 to 1000 uM after 24 hrs by MTT assay relative to control; format: cell-based; conditions: human
[9] = biological target: T1, rRNA adenine N-6-methyltransferase (Staphylococcus aureus (strain N315)); assay: Inhibition of bacterial C-terminal His6-tagged ErmC' expressed in Escherichia coli BL21(DE3) assessed as decrease of protein binding to [gamma-33P]ATP-labeled 32-nt oligonucleotide at 6.25 mM after 30 mins by filter binding assay relative to control; conditions: Bacteria

Chain of rRNA adenine N-6-methyltransferase (Staphylococcus aureus, UniProt P02979) (P02979 whole entry): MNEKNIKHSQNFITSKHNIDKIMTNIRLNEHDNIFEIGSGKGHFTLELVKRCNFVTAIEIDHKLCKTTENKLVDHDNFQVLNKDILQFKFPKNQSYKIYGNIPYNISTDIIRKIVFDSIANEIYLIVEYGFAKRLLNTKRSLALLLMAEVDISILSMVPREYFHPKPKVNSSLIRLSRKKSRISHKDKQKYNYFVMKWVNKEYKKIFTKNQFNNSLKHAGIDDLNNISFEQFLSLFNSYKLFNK

| SMILES | MIC [1] [µg/mL] | MIC (Escherichia coli) | also measured |
| --- | --- | --- | --- |
| O=C(NCCSc1ccccc1)c1ccc(-n2cncn2)cc1 | 2560 | >= 100 mg/L | – |
| O=C(CSc1nnc2c(n1)[nH]c1ccccc12)Nc1ccccn1 | 2560 | >= 100 mg/L | – |
| O=C(c1cc(Cl)c[nH]1)N1CCN(c2ncc(C(F)(F)F)cc2Cl)CC1 | 2000 | >= 100 mg/L | – |
| O=C(Cc1cccc(F)c1)Nc1cccc(-c2ccn[nH]2)c1 | 2560 | >= 100 mg/L | – |
| O=C(Nc1cccc(NCc2ccncc2)c1)c1ccccc1Cl | 2560 | >= 100 mg/L | – |
| O=C(Cc1cn2ccsc2n1)Nc1cccc(N2CCCC2=O)c1 | 2560 | >= 100 mg/L | – |
| Nn1c(SCc2nc3ccccc3[nH]2)nnc1-c1ccncc1 | > 2560 | >= 100 mg/L | – |
| CC(C)c1ccc(NC(=S)N/N=C/c2cc(Cl)cc(Cl)c2O)cc1 | – | – | pIC50 [2]: 6.35 |
| O=C(NC1CCN(c2nc3ccccc3s2)CC1)c1ccncc1 | 2560 | >= 100 mg/L | – |
| CCCc1cc(C(=O)Nc2cccc(OCc3ccncc3)c2)[nH]n1 | > 2560 | >= 100 mg/L | – |
| O=C(CSc1nc2[nH]cnc2c(=O)[nH]1)Nc1ccc(O)cc1 | 2560 | >= 100 mg/L | IC50 [3]: Not Active |
| O=C(Nc1ccn(CCc2ccncc2)n1)Nc1ccc(F)cc1F | > 2560 | >= 100 mg/L | – |
| Cc1nccc(C(=O)Nc2cc(NC(=O)c3ccccc3)ccc2C)n1 | 2560 | >= 100 mg/L | IC50 [3]: Not Active |
| O=C(NCCNc1ncccc1C(F)(F)F)c1cnccn1 | 2560 | >= 100 mg/L | IC50 [3]: Not Active |
| CC(=O)Nc1ccc(S(=O)(=O)NCCc2ccncc2)cc1 | > 2560 | >= 100 mg/L | – |
| CC(=O)c1c[nH]c(C(=O)N2CCN(c3ccc(C(F)(F)F)cn3)CC2)c1 | 2560 | >= 100 mg/L | – |
| O=C(Nc1cccc(NC(=O)c2cccc(F)c2)c1)c1ccncc1 | 2560 | >= 100 mg/L | – |
| O=C(Nc1nccs1)c1cc(-c2ccccn2)nc2ccccc12 | 2560 | >= 100 mg/L | – |
| O=C(c1c[nH]c(=O)[nH]1)N1CCN(c2ccc(C(F)(F)F)cn2)CC1 | 2560 | >= 100 mg/L | fold change (FC) [4]: 2; viability at 24 h, 125 µM [5]: 58%; viability at 24 h, 1000 µM [6]: 68% |
| Cc1nccn1-c1ccc(CNc2nc3ccccc3o2)cc1F | 2000 | >= 100 mg/L | IC50 [3]: Not Active |
| Cc1cccc(Nc2nc(C(=O)N3CCN(c4ccc(C(F)(F)F)cn4)CC3)cs2)n1 | 2560 | >= 100 mg/L | Activity (HEK293): Dose-dependent effect; alphaKi [7]: 155 µM; viability at 24 h, 125 µM [5]: 59%; viability at 24 h, 1000 µM [6]: 16% |
| Nc1nc(N)nc(COC(=O)c2occc2COc2ccccc2)n1 | 2560 | >= 100 mg/L | IC50 [3]: Not Active |
| O=C(NCc1cccc(Cn2ccnc2)c1)c1cc2ccccc2o1 | > 2560 | >= 100 mg/L | – |
| Cc1cnc(C(=O)NCCNc2ncccc2C(F)(F)F)cn1 | 2560 | >= 100 mg/L | IC50 [3]: Not Active |

| SMILES | MIC [1] [µg/mL] | MIC (Escherichia coli) | also measured |
| --- | --- | --- | --- |
| COc1ccc(C(=O)CSc2nc(O)cc(=O)[nH]2)cc1 | 2000 | >= 100 mg/L | – |
| Cc1occc1C(=O)Nc1nc(CC(=O)Nc2ccccc2)cs1 | 2560 | >= 100 mg/L | – |
| O=C(NCCNc1ccc(C(F)(F)F)cn1)c1cnccn1 | 2000 | >= 100 mg/L | IC50 [3]: Not Active |
| O=C(CSc1nc2cccnc2[nH]1)Nc1nccs1 | 2000 | >= 100 mg/L | – |
| CCC1N=C(C)C(CN2CCN(c3ccc(C(F)(F)F)cn3)CC2)=N1 (stereo not drawn) | 2000 | >= 100 mg/L | IC50 [3]: Not Active |
| O=C(c1cc(C2CC2)n[nH]1)N1CCN(c2ccc(C(F)(F)F)cn2)CC1 | 2560 | >= 100 mg/L | – |
| CC(=O)Nc1nc(C)c(-c2csc(Nc3cccc(O)c3)n2)s1 | 2000 | >= 100 mg/L | viability at 24 h, up to 1000 µM ([8]; read-out: %max): 4.5% |
| O=C(c1cn(-c2ccccc2)nn1)N1CCN(c2ccc(C(F)(F)F)cn2)CC1 | 2560 | >= 100 mg/L | – |
| O=C(c1csc(Nc2ncccn2)n1)N1CCN(c2ccc(C(F)(F)F)cn2)CC1 | 2000 | >= 100 mg/L | viability at 24 h, up to 1000 µM ([8]; read-out: Activity): 59 to 67% |
| FC(F)(F)c1ccc(N2CCN(Cc3c[nH]c(-c4ccccc4)n3)CC2)nc1 | 2560 | >= 100 mg/L | – |
| Nc1nc(N)nc(CSc2nnc(NCc3ccccc3)s2)n1 | 2560 | >= 100 mg/L | – |
| O=C(NCCOc1ccc2c(c1)OCO2)c1ccc2ccccc2n1 | > 2560 | >= 100 mg/L | – |
| COC(=O)c1sc2ccccc2c1OS(=O)(=O)c1ccc(Cl)cc1 | – | – | fold change (FC) [9]: 3 |
| O=C(c1ccn[nH]1)N1CCN(c2ccc(C(F)(F)F)cn2)CC1 | 2560 | >= 100 mg/L | IC50 [3]: Not Active |
| O=C(CCn1cncn1)NCc1cccc(NC(=O)C2CCCC2)c1 | 2560 | >= 100 mg/L | IC50 [3]: Not Active |
| Cc1cc(S(N)(=O)=O)cc(NC(=O)Cn2cnc(C#N)n2)c1C | 2560 | >= 100 mg/L | IC50 [3]: Not Active |
| O=C(Nc1ccncc1)c1ccn(COc2ccc(F)c(Cl)c2)n1 | 2000 | >= 100 mg/L | – |
| FC(F)(F)c1ccc(N2CCN(Cc3cn4ccccc4n3)CC2)nc1 | 2560 | >= 100 mg/L | – |
| Cc1cnc(C(=O)NCCNc2ccc(C(F)(F)F)cn2)cn1 | 2560 | >= 100 mg/L | IC50 [3]: Not Active |
| Cn1cnnc1-c1cccc(NC(=O)Cc2cccc(F)c2)c1 | 2560 | >= 100 mg/L | – |
| CN(C)c1ccc(CNC(=O)c2ccc(-n3cncn3)cc2)cc1 | 2000 | >= 100 mg/L | – |
| O=C(c1cnn[nH]1)N1CCN(c2ccc(C(F)(F)F)cn2)CC1 | 2560 | >= 100 mg/L | – |
| O=C(c1n[nH]c(=O)[nH]1)N1CCN(c2ccc(C(F)(F)F)cn2)CC1 | 2560 | >= 100 mg/L | – |
